Assays:
[1] = molar heat capacity at constant pressure; conditions: 101.33 kPa
[2] = Molar enthalpy of transition or fusion

BrC12CC3CC(CC(C3)C1)C2 [1-bromotricyclo[3.3.1.1(3,7)]decane]
Conditions	Triple point temperature [K]
Crystal 1, DTA	391.8
Crystal 2, Adiabatic calorimetry	309.9
Crystal 2, DTA	309.8
Crystal 3, Adiabatic calorimetry	282.2
Crystal 4, Adiabatic calorimetry	31

[1]
Conditions	molar heat capacity at constant pressure [J/K/mol]
5 K, Crystal 4, Vacuum adiabatic calorimetry	0.6485
10 K, Crystal 4, Vacuum adiabatic calorimetry	4.755
15 K, Crystal 4, Vacuum adiabatic calorimetry	11.51
20 K, Crystal 4, Vacuum adiabatic calorimetry	18.36
25 K, Crystal 4, Vacuum adiabatic calorimetry	24.35
30 K, Crystal 4, Vacuum adiabatic calorimetry	29.52
31 K, Crystal 3, Vacuum adiabatic calorimetry	30.48
31 K, Crystal 4, Vacuum adiabatic calorimetry	30.48
35 K, Crystal 3, Vacuum adiabatic calorimetry	33.96
40 K, Crystal 3, Vacuum adiabatic calorimetry	37.77
45 K, Crystal 3, Vacuum adiabatic calorimetry	41.08
50 K, Crystal 3, Vacuum adiabatic calorimetry	44.09
60 K, Crystal 3, Vacuum adiabatic calorimetry	49.73
70 K, Crystal 3, Vacuum adiabatic calorimetry	55.13
80 K, Crystal 3, Vacuum adiabatic calorimetry	60.5
90 K, Crystal 3, Vacuum adiabatic calorimetry	65.87
100 K, Crystal 3, Vacuum adiabatic calorimetry	71.25
110 K, Crystal 3, Vacuum adiabatic calorimetry	76.65
120 K, Crystal 3, Vacuum adiabatic calorimetry	82.11
130 K, Crystal 3, Vacuum adiabatic calorimetry	87.63
140 K, Crystal 3, Vacuum adiabatic calorimetry	93.24
150 K, Crystal 3, Vacuum adiabatic calorimetry	99.03
160 K, Crystal 3, Vacuum adiabatic calorimetry	105
170 K, Crystal 3, Vacuum adiabatic calorimetry	111.2
180 K, Crystal 3, Vacuum adiabatic calorimetry	117.7
190 K, Crystal 3, Vacuum adiabatic calorimetry	124.4
200 K, Crystal 3, Vacuum adiabatic calorimetry	131.5
210 K, Crystal 3, Vacuum adiabatic calorimetry	138.9
220 K, Crystal 3, Vacuum adiabatic calorimetry	146.5
230 K, Crystal 3, Vacuum adiabatic calorimetry	154.9
240 K, Crystal 3, Vacuum adiabatic calorimetry	164.8
250 K, Crystal 3, Vacuum adiabatic calorimetry	175.5
260 K, Crystal 3, Vacuum adiabatic calorimetry	185.9
270 K, Crystal 3, Vacuum adiabatic calorimetry	195.4
273.15 K, Crystal 3, Vacuum adiabatic calorimetry	198.1
280 K, Crystal 3, Vacuum adiabatic calorimetry	203.6
282.2 K, Crystal 2, Vacuum adiabatic calorimetry	205.2
282.2 K, Crystal 3, Vacuum adiabatic calorimetry	205.2
290 K, Crystal 2, Vacuum adiabatic calorimetry	210.6
298.15 K, Crystal 2, Vacuum adiabatic calorimetry	215.4
300 K, Crystal 2, Vacuum adiabatic calorimetry	216.5
309.9 K, Crystal 1, Vacuum adiabatic calorimetry	246.3
309.9 K, Crystal 2, Vacuum adiabatic calorimetry	221.9
310 K, Crystal 1, Vacuum adiabatic calorimetry	246.5
320 K, Crystal 1, Vacuum adiabatic calorimetry	257.5
330 K, Crystal 1, Large sample (1 g) DSC	279.7
340 K, Crystal 1, Large sample (1 g) DSC	297
350 K, Crystal 1, Large sample (1 g) DSC	302.1
360 K, Crystal 1, Large sample (1 g) DSC	305.2
370 K, Crystal 1, Large sample (1 g) DSC	305.7
380 K, Crystal 1, Large sample (1 g) DSC	305.9
390 K, Crystal 1, Large sample (1 g) DSC	306.1
391.8 K, Crystal 1, Large sample (1 g) DSC	306.1

[1], Liquid, Large sample (1 g) DSC
Conditions	molar heat capacity at constant pressure [J/K/mol]
391.8 K	311.4
400 K	311.6
410 K	312
420 K	312.3
430 K	312.7

[2]
Conditions	Molar enthalpy of transition or fusion [kcal/mol]
Crystal 1, DSC	0.949
Crystal 2, Adiabatic calorimetry	1.77
Crystal 2, DSC	1.79
Crystal 3, Adiabatic calorimetry	0.3315
Crystal 4, Adiabatic calorimetry	0.000344

Reference: the NIST ThermoML archive (doi:10.1016/j.jct.2004.10.005)
